The subject of the series is CCRIS mutagenicity, Ames/micronucleus/aberration tests. Nature of the series: CCRIS mutagenicity studies.
Setting [1] is: Test System: AMES SALMONELLA TYPHIMURIUM, Strain/Indicator: TA98, Metabolic Activation: NONE, Method: STANDARD PLATE.
Where [2] appears, read: Test System: AMES SALMONELLA TYPHIMURIUM, Strain/Indicator: TA98, Metabolic Activation: RAT, LIVER, S-9, AROCLOR 1254, Method: STANDARD PLATE.
[3] abbreviates: Test System: AMES SALMONELLA TYPHIMURIUM, Strain/Indicator: TA100, Metabolic Activation: RAT, LIVER, S-9, AROCLOR 1254, Method: STANDARD PLATE.

Molecules are shown by their SMILES. Active and inactive are the calls of the source. The rule behind the calls is not given here.

As for `COCCCN`, the mutagenic call was “inactive; negative” (Test System: AMES SALMONELLA TYPHIMURIUM, Strain/Indicator: TA98, Metabolic Activation: HAMSTER, LIVER, S-9, AROCLOR 1254, Method: STANDARD PLATE); “inactive; negative” under setting [1]; “inactive; negative” under setting [2]; “inactive; negative” (Test System: AMES SALMONELLA TYPHIMURIUM, Strain/Indicator: TA100, Metabolic Activation: HAMSTER, LIVER, S-9, AROCLOR 1254, Method: STANDARD PLATE); “inactive; negative” (Test System: AMES SALMONELLA TYPHIMURIUM, Strain/Indicator: TA100, Metabolic Activation: NONE, Method: STANDARD PLATE); “inactive; negative” under setting [3]. In addition, the mutagenic call (Test System: AMES SALMONELLA TYPHIMURIUM, Strain/Indicator: TA1535, Metabolic Activation: HAMSTER, LIVER, S-9, AROCLOR 1254, Method: STANDARD PLATE) was “inactive; negative”; the mutagenic call (Test System: AMES SALMONELLA TYPHIMURIUM, Strain/Indicator: TA1535, Metabolic Activation: NONE, Method: STANDARD PLATE) was “inactive; negative”; the mutagenic call (Test System: AMES SALMONELLA TYPHIMURIUM, Strain/Indicator: TA1535, Metabolic Activation: RAT, LIVER, S-9, AROCLOR 1254, Method: STANDARD PLATE) is “inactive; negative”; the mutagenic call (Test System: AMES SALMONELLA TYPHIMURIUM, Strain/Indicator: TA1537, Metabolic Activation: HAMSTER, LIVER, S-9, AROCLOR 1254, Method: STANDARD PLATE) was “inactive; negative”; the mutagenic call (Test System: AMES SALMONELLA TYPHIMURIUM, Strain/Indicator: TA1537, Metabolic Activation: NONE, Method: STANDARD PLATE) is “inactive; negative”; the mutagenic call (Test System: AMES SALMONELLA TYPHIMURIUM, Strain/Indicator: TA1537, Metabolic Activation: RAT, LIVER, S-9, AROCLOR 1254, Method: STANDARD PLATE) was “inactive; negative”. Further, the mutagenic call is, setting by setting: (Test System: AMES SALMONELLA TYPHIMURIUM, Strain/Indicator: TA1538, Metabolic Activation: HAMSTER, LIVER, S-9, AROCLOR 1254, Method: STANDARD PLATE) “inactive; negative”; (Test System: AMES SALMONELLA TYPHIMURIUM, Strain/Indicator: TA1538, Metabolic Activation: NONE, Method: STANDARD PLATE) “inactive; negative”; (Test System: AMES SALMONELLA TYPHIMURIUM, Strain/Indicator: TA1538, Metabolic Activation: RAT, LIVER, S-9, AROCLOR 1254, Method: STANDARD PLATE) “inactive; negative”; (Test System: Mouse lymphoma, Strain/Indicator: L5178Y (tk+/tk-), Metabolic Activation: None, Method: Suspension/plate) “inactive; negative”; (Test System: Mouse lymphoma, Strain/Indicator: L5178Y (tk+/tk-), Metabolic Activation: Rat, Liver, S-9, Aroclor 1254, Method: Suspension/plate) “inactive; negative”.
On to `CN(C)c1ncnc2nc[nH]c12`, for which the mutagenic call was “inactive; negative” (Test System: AMES SALMONELLA TYPHIMURIUM, Strain/Indicator: TA98, Metabolic Activation: NONE, Method: PREINCUBATION); “inactive; negative” (Test System: AMES SALMONELLA TYPHIMURIUM, Strain/Indicator: TA98, Metabolic Activation: RAT, LIVER, S9, Method: PREINCUBATION); “inactive; negative” (Test System: AMES SALMONELLA TYPHIMURIUM, Strain/Indicator: TA100, Metabolic Activation: NONE, Method: PREINCUBATION); “inactive; negative” (Test System: AMES SALMONELLA TYPHIMURIUM, Strain/Indicator: TA100, Metabolic Activation: RAT, LIVER, S9, Method: PREINCUBATION); “active; positive” (Test System: AMES SALMONELLA TYPHIMURIUM, Strain/Indicator: TA1535, Metabolic Activation: NONE, Method: PREINCUBATION); “active; positive” (Test System: AMES SALMONELLA TYPHIMURIUM, Strain/Indicator: TA1535, Metabolic Activation: RAT, LIVER, S9, Method: PREINCUBATION). Further, the mutagenic call runs as follows: (Test System: AMES SALMONELLA TYPHIMURIUM, Strain/Indicator: TA1537, Metabolic Activation: NONE, Method: PREINCUBATION) “inactive; negative”; (Test System: AMES SALMONELLA TYPHIMURIUM, Strain/Indicator: TA1537, Metabolic Activation: RAT, LIVER, S9, Method: PREINCUBATION) “inactive; negative”; (Test System: E. COLI, Strain/Indicator: WP2UVRA, Metabolic Activation: NONE, Method: PREINCUBATION) “inactive; negative”; (Test System: E. COLI, Strain/Indicator: WP2UVRA, Metabolic Activation: RAT, LIVER, S9, Method: PREINCUBATION) “inactive; negative”.
Take `O=c1oc2c([N+](=O)[O-])cccc2c2ccccc12`: the mutagenic call by setting is: (Test System: AMES SALMONELLA TYPHIMURIUM, Strain/Indicator: TA98(1,8-DNP6), Metabolic Activation: NONE, Method: MICROSUSPENSION) “active; positive”; (Test System: AMES SALMONELLA TYPHIMURIUM, Strain/Indicator: TA98(1,8-DNP6), Metabolic Activation: NONE, Method: STANDARD PLATE) “active; positive”; (Test System: AMES SALMONELLA TYPHIMURIUM, Strain/Indicator: TA98(NR), Metabolic Activation: NONE, Method: MICROSUSPENSION) “active; positive”; (Test System: AMES SALMONELLA TYPHIMURIUM, Strain/Indicator: TA98(NR), Metabolic Activation: NONE, Method: STANDARD PLATE) “inactive; negative”; (Test System: AMES SALMONELLA TYPHIMURIUM, Strain/Indicator: TA98(NR), Metabolic Activation: RAT, LIVER, S-9, AROCLOR 1254, Method: STANDARD PLATE) “active; positive”; (Test System: AMES SALMONELLA TYPHIMURIUM, Strain/Indicator: TA98, Metabolic Activation: NONE, Method: MICROSUSPENSION) “active; positive”. Besides, the mutagenic call was “active; positive” under setting [1]; “active; positive” (Test System: AMES SALMONELLA TYPHIMURIUM, Strain/Indicator: TA98, Metabolic Activation: RAT, LIVER, S-9, AROCLOR 1254, Method: MICROSUSPENSION); “active; positive” under setting [2].
Turning to `O=C1CCc2ccc3ccc4ccccc4c3c21`, the mutagenic call under setting [3] is “inactive; negative”.
Take `Cc1ccc2ccc3c4ccccc4ccc3c2c1`: the mutagenic call is, setting by setting: (Test System: AMES SALMONELLA TYPHIMURIUM, Strain/Indicator: TA100, Metabolic Activation: RAT, LIVER, MICROSOMES, 3-METHYLCHRYSENE, Method: STANDARD PLATE) “inactive; negative”; (Test System: AMES SALMONELLA TYPHIMURIUM, Strain/Indicator: TA100, Metabolic Activation: RAT, LIVER, MICROSOMES, AROCLOR 1254, Method: STANDARD PLATE) “active; positive”; (Test System: AMES SALMONELLA TYPHIMURIUM, Strain/Indicator: TA100, Metabolic Activation: RAT, LIVER, MICROSOMES, Method: STANDARD PLATE) “inactive; negative”.
Turning to `Nc1ccc2ccc3cc4ccccc4c4ccc1c2c34`, the mutagenic call by setting is: (Test System: AMES SALMONELLA TYPHIMURIUM, Strain/Indicator: TA98(1,8-DNP6), Metabolic Activation: NONE) “active; positive”; (Test System: AMES SALMONELLA TYPHIMURIUM, Strain/Indicator: TA98(1,8-DNP6), Metabolic Activation: RAT, LIVER, S-9, AROCLOR 1254) “active; positive”; (Test System: AMES SALMONELLA TYPHIMURIUM, Strain/Indicator: TA98(NR), Metabolic Activation: NONE) “active; positive”; (Test System: AMES SALMONELLA TYPHIMURIUM, Strain/Indicator: TA98(NR), Metabolic Activation: RAT, LIVER, S-9, AROCLOR 1254) “active; positive”; (Test System: AMES SALMONELLA TYPHIMURIUM, Strain/Indicator: TA98, Metabolic Activation: NONE) “active; positive”; (Test System: AMES SALMONELLA TYPHIMURIUM, Strain/Indicator: TA98, Metabolic Activation: RAT, LIVER, S-9, AROCLOR 1254) “active; positive”.

Source of the values: PubChem BioAssay AID1259407 (Chemical Carcinogenesis Research Information System (CCRIS), 2018).
